# Measured values taken from ChEMBL document CHEMBL5303711, “ECBD screening data for assay EOS300108” (2023).
# Calls of active or inactive are those of the source. The rule behind the calls is not given here.
# Assay: Cytotoxicity activity against human HepG2 cells assessed by CellTiter-Glo luminescent cell viability assay.
# Assay type: toxicity, cell-based
# Design: assay stage confirmatory assay, source tissue liver
# Settings: HepG2 cells, read-out: IC50 relative
row,SMILES,CC50
1,CC(C)Oc1cc(O)c2c(=O)c(-c3ccc(O)cc3)coc2c1,15.6 µM (active)
2,CCC[C@H](NCc1csc(N(C)C)n1)c1ncccc1Cl,11.1 µM (active)
3,Cc1nc(-c2ccccn2)[nH]c(=O)c1CC(=O)N(C)[C@H]1CCc2ccccc21,6.3 µM (active)
4,CCOc1ncccc1C(=O)Nc1cc(F)ccc1F,1.3 µM (active)
5,CC[C@H]1c2ccsc2CCN1C(=O)c1cc(OC)cc(OC)c1,13 µM (active)
6,O=C(Nc1ccc(O[C@H]2CCOC2)cc1)c1cn2ccnc2s1,1.8 µM (active)
7,CC(C)c1cc(C(=O)NCc2ccc(N3CCO[C@@H](C)C3)nc2)n[nH]1,4.8 µM (active)
8,Oc1ccc(CCNc2ncnc3cccc(F)c23)cc1,3.7 µM (active)
9,Cc1noc(C)c1C(=O)Nc1nc(-c2ccc(S(=O)(=O)N(C)C)cc2)cs1,11.3 µM (active)
10,CCOc1cc(C)c(CN2C[C@@H](CN(C)C)C[C@H](CO)C2)cc1C(C)C,4.1 µM (active)
11,Cc1nc(-c2ccccn2)[nH]c(=O)c1CC(=O)N1CCC[C@H]1C1CCCCC1,6.7 µM (active)
12,CCOc1ccc(NC(=O)c2nc(S(C)(=O)=O)ncc2Br)cc1,1.6 µM (active)
13,CC(C)N(CCNS(=O)(=O)c1ccc(-n2ncc(Cl)c(Cl)c2=O)cc1)C(C)C,1.3 µM (active)
14,COc1ccc(C(N)=O)cc1NC(=O)c1cc(Br)c[nH]1,1.2 µM (active)
15,CCc1ccc2nc(N3CCC(C(=O)NCCN(CC)CC)CC3)sc2c1,3.1 µM (active)
16,CC(C)[C@H](NC1CCN(C(=O)c2ccoc2)CC1)c1ccccc1,10.7 µM (active)
17,Cc1c(C(=O)Nc2ccnc3ccnn23)cnn1-c1ccccc1F,3.3 µM (active)
18,Cc1nc(NC(=O)c2cc(Br)cn2C)sc1C,1 µM (active)
19,N#CCCn1c(=O)c(C(=O)NCCCc2ccccc2)c(O)c2ccccc21,5.9 µM (active)
20,CCOc1ccc(CN2CCN(C(=O)c3ccc(-c4ncon4)cc3)CC2)cc1,5 µM (active)
21,Cc1ccc(NC(=O)c2nc(S(C)(=O)=O)ncc2Br)cc1,2.7 µM (active)
22,CCc1n[nH]cc1C(=O)N[C@H]1CC[C@H](Nc2nccc(-c3ccccn3)n2)C1,3.9 µM (active)
23,COc1cc(OC)c2cc(CCCN)[nH]c2c1,8.2 µM (active)
24,Cc1ccc(F)c(C(=O)N2CCC(Oc3ccncc3C)CC2)c1,11.2 µM (active)
25,CCS(=O)(=O)c1ncc(Br)c(C(=O)Nc2ccc(C)cc2)n1,3.1 µM (active)

row,SMILES,CC50
1,CN1CCNc2cc(Br)ccc21,15.3 µM (inactive)
2,CC(=O)NCc1ccc(C(=O)Cn2ncc(Cl)c(Cl)c2=O)cc1,8 µM (active)
3,C[C@H]1Cc2cc(S(N)(=O)=O)ccc2N1Cc1cc(=O)n2cc(Cl)ccc2n1,10.9 µM (active)
4,Fc1cccc(OC2CCN(C[C@H]3[C@@H]4CNC[C@@H]43)CC2)c1,7.9 µM (active)
5,CCOc1ccc(OCC)c(NC(=O)c2ccc(N3CCN(C(C)C)CC3)cc2)c1,9.8 µM (active)
6,Cc1oc(-c2ccccc2)nc1C(=O)Nc1ncccc1O,9.6 µM (inactive)
7,CN(C)S(=O)(=O)c1cccc(NC(=O)c2ccc(S(=O)(=O)N(C)c3ccccc3)cc2)c1,2.6 µM (active)
8,NC(=O)c1c(NC(=O)Cn2ncc(Cl)c(Cl)c2=O)sc2c1CCC2,1.9 µM (active)
9,CCn1c(-c2cccc(S(=O)(=O)N3CCOCC3)c2)cs/c1=N/c1ccccc1,5 µM (active)
10,CN1C(=O)Cc2cc(S(=O)(=O)Nc3cccc4cccnc34)ccc21,6.9 µM (active)
11,Oc1ccccc1N1CCN(C[C@H](O)COc2ccc(Oc3ccccc3)cc2)CC1,19.2 µM (inactive)
12,CCN(C(=O)c1ccco1)c1nc2ccccc2s1,0.9 µM (active)
13,c1csc(Cn2cccc2CN2CCC[C@H](N3CCCC3)CC2)c1,5.2 µM (active)
14,O=C(COc1ccc(F)cc1)N1CCN(c2ncnc3c(F)cccc23)CC1,9.7 µM (active)
15,OC1(CNCCSCc2cccc(Cl)c2)CCNC1 (stereo not given),8.4 µM (active)
16,c1cc2c(cc1-c1ccc3c(n1)CCCN3)CCN2,13.5 µM (inactive)
17,Nc1nccc(-n2nnc3ccccc32)n1,8.7 µM (active)
18,OC(c1ccccc1)C(CN1CCCC1)c1ccccc1 (stereo not given),8.8 µM (active)
19,CC(C)c1cc(N2CCN(c3ccc(C#N)cc3)CC2)ncn1,5.7 µM (active)
20,COc1ccc(OCCN2CCN(C(=O)c3ccc(OCc4cn5ccccc5n4)cc3)CC2)cc1,4.3 µM (active)
21,CN(C)C1CCN(C(C)(C)CNCc2cccc(Cl)c2N)CC1,12 µM (active)
22,Cc1ccn(-c2ccc(NC(=O)c3ccccn3)cc2)n1,4.5 µM (active)
23,COc1ccc(NC(=O)c2nc(S(C)(=O)=O)ncc2Br)cc1,1.9 µM (active)
24,CCCOc1ccc(NC(=O)N2CCN(c3ccncc3)CC2)cc1Cl,7.4 µM (active)
25,CC1CCc2c(sc3ncnc(NN)c23)C1 (stereo not given),20.5 µM (inactive)

row,SMILES,CC50
1,CCn1c(=O)c(C)nc2cc(C(=O)N3CCN(Cc4ccc(OC)cc4)CC3)ccc21,7.3 µM (active)
2,Clc1ccc2oc(C3CCNCC3)cc2c1,10.1 µM (active)
3,Clc1cccc2[nH]nc(Br)c12,8.8 µM (active)
4,O[C@H]1CCN(Cc2csc(-c3ccoc3)n2)C12CCCC2,5 µM (active)
5,COCCNc1ncnc2scc(-c3ccccc3)c12,8.6 µM (active)
6,COc1ccc(CN2CCN(c3ncnc4sccc34)CC2)cc1OC,1.4 µM (active)
7,CC(=O)NCCc1ccc(C(=O)Cn2ncc(Cl)c(Cl)c2=O)s1,7.8 µM (active)
8,CC(=O)Nc1cccc(NC(=O)c2cc3ccccc3cc2O)c1,1.6 µM (inactive)
9,NNc1ncnc2ccc(Br)cc12,2.4 µM (active)
10,O=C(Nc1ccc(O)cc1)c1cnn(Cc2ccccc2Cl)c1,8.4 µM (active)
11,CC(C)CCOc1ccc(CN(CC(C)(C)N(C)C)S(C)(=O)=O)cc1,12.2 µM (active)
12,Cn1c(N2CCN(Cc3ccccc3)CC2)nc2c1c(=O)n(Cc1ccccc1)c(=O)n2C,13.4 µM (inactive)
13,Cc1cc(C)cc(N2CCC(NCC3CCCNC3)CC2)c1 (stereo not given),8.2 µM (active)
14,CN(C)Cc1ccc(C(=O)Nc2nc3c(s2)CCCC3)cc1,11.3 µM (active)
15,CNc1c(Cl)ncnc1NCc1cccc(Cn2cccn2)c1,1.4 µM (active)
16,Cc1cccc(C(=O)Nc2ccc(C(=O)Nc3cccnc3)cc2)n1,5.8 µM (active)
17,CCN(C(=O)c1c[nH]n2c1nc(=O)c1ccccc12)[C@@H](C)c1ccc(F)cc1,5 µM (active)
18,O=C(Nc1ncc(-c2ccccc2)s1)c1ccccn1,2.3 µM (active)
19,Cc1ccc(NC(=O)c2ccc(Cl)s2)cc1S(=O)(=O)N1CCOCC1,4.7 µM (active)
20,Cc1cc2c(N3CC[C@@]4(C3)NC(=O)N(C)C4=O)ccnc2cc1Cl,8.6 µM (active)
21,Clc1ccc(-c2cnc(CN3CC4(CCNCC4)[C@H]4COC[C@H]43)o2)cc1,12.8 µM (active)
22,Cc1cc(N2CCNCC2)nc2c(C)cccc12,11.1 µM (active)
23,COc1ccc(CN2CCN(CCSC)CC2)c2c(OC)cccc12,12.6 µM (inactive)
24,CCOc1cc(C(=O)N[C@H]2CCN(C3CCN(C)CC3)C2)ccc1C,15.9 µM (inactive)
25,CS(=O)(=O)c1ncc(Br)c(C(=O)Nc2ccc(F)cc2)n1,2.8 µM (active)
